Source: publication PMC10341795, “N-Methyl Costaricine and Costaricine, Two Potent Butyrylcholinesterase Inhibitors from Alseodaphne pendulifolia Gamb” (International Journal of Molecular Sciences, 2023)
Entries after “also recorded” stand apart in the source; their conditions may differ. Like-named read-outs stand apart in the source and are kept apart here.

Key:
BChE from equine serum = biological target: T1, BChE from equine serum (Equus caballus, UniProt P81908); test: biochemical; assay type: biochemical; details: for Selectivity Index BChE: IC50 (AChE)/IC50 (BChE); for BChE potency relative to galantamine: comparison of IC50 values; for Cholinesterase selectivity (in words): from selectivity indices, AChE vs BChE; for inhibition at 100 µM: read-out: Percentage Inhibition at 100 µM, BChE, 100 µM
T1 construct: AChE from Electrophorus electricus and BChE from equine serum were purchased from Sigma-Aldrich Co. LLC; purchased Sigma-Aldrich Co. LLC; (St. Louis, MO, USA); host or cells: equine serum
T1 sequence (P81908 whole entry): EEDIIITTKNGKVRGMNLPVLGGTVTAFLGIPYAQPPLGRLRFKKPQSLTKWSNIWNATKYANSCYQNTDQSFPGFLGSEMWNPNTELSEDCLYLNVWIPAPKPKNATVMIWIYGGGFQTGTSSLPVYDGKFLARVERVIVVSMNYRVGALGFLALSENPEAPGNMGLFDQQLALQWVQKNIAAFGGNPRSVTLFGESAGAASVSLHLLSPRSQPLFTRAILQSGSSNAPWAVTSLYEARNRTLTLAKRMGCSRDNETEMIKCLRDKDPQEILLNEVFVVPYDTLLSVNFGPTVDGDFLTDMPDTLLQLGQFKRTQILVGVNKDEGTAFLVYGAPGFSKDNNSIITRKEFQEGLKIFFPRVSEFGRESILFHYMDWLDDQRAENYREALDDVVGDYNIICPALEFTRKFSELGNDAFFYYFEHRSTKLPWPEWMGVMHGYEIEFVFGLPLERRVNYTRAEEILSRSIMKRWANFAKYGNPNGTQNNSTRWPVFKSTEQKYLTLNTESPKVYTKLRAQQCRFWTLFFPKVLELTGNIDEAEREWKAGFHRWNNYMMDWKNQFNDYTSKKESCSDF
Experimental: (§1) The cholinesterase inhibitory activities of the extracts and fompounds 1–6 were performed as previously described. AChE from Electrophorus electricus and BChE from equine serum were purchased from Sigma-Aldrich Co. LLC. (St. Louis, MO, USA). An amount of 0.1 M of sodium phosphate buffer (pH 8) was added to a 96-well microplate followed by the sample and 1U of the AChE or BChE. Then, 10 mM of 5,5′-dithiobis(2-nitrobenzoic acid) (DTNB) was added followed by 14 mM of acetylthiocholine iodide or S-butyrylthiocholine chloride. The final concentration of DMSO was 1%.

[1] = biological target: T2, AChE from Electrophorus electricus (Electrophorus electricus, UniProt O42275); test: biochemical; details: for Selectivity Index AChE: IC50 (BChE)/IC50 (AChE); for inhibition at 100 µM: read-out: Percentage Inhibition at 100 µM, AChE, 100 µM
T2 construct: purchased Sigma-Aldrich Co. LLC; (St. Louis, MO, USA)
T2 sequence (O42275 24-633): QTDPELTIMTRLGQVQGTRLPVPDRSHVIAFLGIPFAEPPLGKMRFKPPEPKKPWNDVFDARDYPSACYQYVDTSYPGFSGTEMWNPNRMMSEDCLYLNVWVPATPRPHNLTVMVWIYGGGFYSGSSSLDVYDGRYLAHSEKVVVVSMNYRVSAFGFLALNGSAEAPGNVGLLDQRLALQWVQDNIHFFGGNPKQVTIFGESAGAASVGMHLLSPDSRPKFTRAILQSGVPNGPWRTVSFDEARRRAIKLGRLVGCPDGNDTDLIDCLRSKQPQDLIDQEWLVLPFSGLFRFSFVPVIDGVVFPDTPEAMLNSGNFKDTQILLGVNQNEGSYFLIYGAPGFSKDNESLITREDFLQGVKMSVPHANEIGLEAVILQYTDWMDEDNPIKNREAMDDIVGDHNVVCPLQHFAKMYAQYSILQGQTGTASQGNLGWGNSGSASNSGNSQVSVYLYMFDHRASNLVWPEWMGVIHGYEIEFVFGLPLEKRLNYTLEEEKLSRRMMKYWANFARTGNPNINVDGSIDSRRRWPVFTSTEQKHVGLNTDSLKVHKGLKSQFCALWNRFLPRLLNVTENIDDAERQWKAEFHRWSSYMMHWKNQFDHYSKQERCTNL
Experimental: as §1

BChE = biological target: T3, BChE (Equus caballus, UniProt P81908); test: Enzyme kinetic study against BChE (Lineweaver-Burk and secondary plots); assay type: biochemical; details: for Mode of inhibition against BChE: Lineweaver-Burk plot
T3 construct: AChE from Electrophorus electricus and BChE from equine serum were purchased from Sigma-Aldrich Co. LLC; purchased Sigma-Aldrich Co. LLC; (St. Louis, MO, USA); host or cells: equine serum
T3 sequence (P81908 whole entry): as the sequence (P81908 whole entry) above
Experimental: as §1, with “1%. Galanthamine was used as the standard for validation and result comparison. The absorbance was measured using a Tecan Infinite 200 Pro Microplate Spectrometer at 412 nm for 30 min.” for “1%.”
The enzyme kinetic studies of compounds 1 and 2 against BChE were performed in a similar manner to the in vitro BChE inhibition assay. The enzyme inhibition kinetic was carried out in the presence of three concentrations of the inhibitors, compounds 1 and 2, at various concentrations of the substrate, S-butyrylthiocholine chloride by constructing a Lineweaver–Burk plot (reciprocal plots of 1/V versus 1/[S]). The inhibition constant (Ki) was estimated from the secondary plot of the Lineweaver–Burk plot.

## COc1cc2c(cc1O)C(Cc1ccc(Oc3cc(CC4c5cc(O)c(OC)cc5CCN4C)ccc3OC)cc1)NCC2 (stereo not shown) [Compound 1, N-methyl costaricine]
BChE from equine serum
  Selectivity Index BChE: 6.48
  BChE potency relative to galantamine: two-fold more potent than galantamine
  Cholinesterase selectivity (in words): BChE selective inhibitors
BChE from equine serum; mean ± SD (n = 3), read-out: IC50 BChE
  IC50: 3.51 ± 0.8 µM
[1]
  Selectivity Index AChE: 0.15
[1]; mean ± SD (n = 3), read-out: IC50 AChE
  IC50: 22.8 ± 1.25 µM
[1]; mean ± SD (n = 3)
  inhibition at 100 µM: > 70%
BChE
  Mode of inhibition against BChE: mixed-mode inhibitors; also recorded: mixed-mode inhibition
BChE; derived from secondary plots of Lineweaver-Burk plots, read-out: Inhibition constant Ki against BChE
  Ki: 0.67 µM

## COc1cc2c(cc1O)[C@@H](Cc1ccc(Oc3cc(C[C@H]4NCCc5cc(OC)c(O)cc54)ccc3OC)cc1)NCC2 [Compound 2, costaricine]
BChE from equine serum
  IC50: 2.9 ± 0.56 µM
  Selectivity Index BChE: 6.03
  BChE potency relative to galantamine: two-fold more potent than galantamine
  Cholinesterase selectivity (in words): BChE selective inhibitors
[1]
  IC50: 17.5 ± 2.16 µM
  Selectivity Index AChE: 0.17
[1]; mean ± SD (n = 3)
  inhibition at 100 µM: > 70%
BChE
  Ki: 0.05 µM
  Mode of inhibition against BChE: mixed-mode inhibitors; also recorded: mixed-mode inhibition
BChE; ratio of Ki values
  Fold higher affinity to BChE compared to compound 1: 13 fold

## COc1ccc2c(c1OC)-c1c(OC)c(OC)cc3c1C(C2)NCC3 (stereo not shown) [Compound 3, hernagine]
BChE from equine serum
  IC50: 32.9 ± 0.99 µM
BChE from equine serum; mean ± SD (n = 3)
  inhibition at 100 µM: 88.87 ± 0.56%
[1]; mean ± SD (n = 3)
  inhibition at 100 µM: < 10%

## COc1ccc2c(c1OC)-c1c(OC)c(OC)cc3c1C(C2)N(C)CC3 (stereo not shown) [Compound 4, N-methyl hernagine]
BChE from equine serum
  IC50: 49.7 ± 3.95 µM
BChE from equine serum; mean ± SD (n = 3)
  inhibition at 100 µM: 77.8 ± 3.73%
[1]; mean ± SD (n = 3)
  inhibition at 100 µM: 23.1 ± 8.39%

## COc1cc2c3c(c1O)-c1c(ccc(OC)c1OC)C[C@@H]3N(C)CC2 [Compound 5, corydine]
BChE from equine serum
  IC50: 52.9 ± 4.11 µM
BChE from equine serum; mean ± SD (n = 3)
  inhibition at 100 µM: 77.9 ± 1.73%
[1]; mean ± SD (n = 3)
  inhibition at 100 µM: 29.7 ± 1.85%
